# Test results from patent US20240025966A1, “CD47 BLOCKADE AND COMBINATION THERAPIES THEREOF FOR REDUCTION OF VASCULAR INFLAMMATION” (The Board of Trustees of the Leland Stanford Junior …, priority 2020, published 2024).
# Columns and labels:
# CD47 promoter = CD47 promoter luciferase reporter assay; format: cell-based, mouse; conditions: smooth muscle cells, 50 ng/ml TNF-α + 10 μM atorvastatin, 24 hours
# Experimental: The luciferase reporter assay was performed as previously described (Kojima et al., Nature 536, 86-90, 2016). CD47 LightSwitch Promoter Reporter GoClones (RenSP, S710450) and Cypridina TK Control constructs (pTK-Cluc, SN0322S) were obtained from SwitchGear Genomics. 45 ng of the RenSP reporter and 5 ng of the pTK-Cluc reporter construct were transfected into mouse smooth muscle cells using Lipofectamine 3000 Transfection 1 Reagent (Thermo Scientific, Catalogue #L3000-008) and Opti-MEM I Reduced Serum Medium (Thermo Scientific, Catalogue #31985062). […] The cell lysate and supernatant were harvested 24 hours after stimulation/treatment und dual luciferase activity was measured with the LightSwitch Luciferase Assay Kit (Active Motif, Catalogue #32031, NC0999256) and Pierce Cypridina Luciferase Glow Assay Kit (Thermo Scientific, P116170) using an iD3 luminometer (Molecular Devices). Relative luciferase activity (RenSP/Cypridina ratio) was quantified as the percentage change relative to the basal value obtained from control-transfected cells.
# CD47 = test: Cd47 expression by quantitative PCR, flow cytometry and immunofluorescence; format: cell-based, mouse; conditions: smooth muscle cells, 50 ng/ml TNF-α + 10 μM atorvastatin, 48 hours; compared to macrophages
# Experimental: RNA was extracted from cell lysates using the miRNeasy Mini Kit (Qiagen, Catalogue #217004) according to the manufacturer's protocol or the TRIzol method (Invitrogen, Catalogue #15596026). Then, RNA was quantified with a NanoDrop One (Thermo Scientific). RNA was reverse transcribed using the High-Capacity RNA-to-cDNA Synthesis Kit (Applied 1 Biosystems, Catalogue #4387406). Quantitative PCR of the cDNA samples was performed on a ViiA7 Real-Time PCR system or a QuantStudio 5 (both Applied Biosystems). Gene expression levels were measured using TaqMan Universal Master Mix II (Applied Biosystems, Catalogue #4440047, Lot #00762728) and commercially available TaqMan primers (Applied Biosystems). Data were quantified with the 2^−ΔΔCt method and normalized to Gapdh as an internal control. […]
# Cells were washed, harvested, and stained with an anti-CD47 antibody (BD Life Sciences, Catalogue #561890, FITC, MIAP301, 0.5 mg/ml) or an isotype control antibody (BD Life Sciences, Catalogue #553929, FITC, R35-95, 0.5 mg/ml) after Fc receptor blockade (BD Biosciences, Catalogue #553142, anti-mouse CD16/CD32). Expression was quantified using the LSRII (BD Life Sciences, Stanford Shared FACS Facility) and analysed by FlowJo10.7.1 (BD Life Sciences). […]
# RAW 264.7 macrophages = test: Apoptosis assay (Caspase-Glo 3/7); format: cell-based, mouse; conditions: with or without 1 μM staurosporine, 4 hours
# Experimental: The apoptosis assay was performed as previously described (Kojima et al., Nature 536, 86-90, 2016). To evaluate apoptosis, the luminometric Caspase-Glo 3/7 Assay System (Promega, Catalogue #G8091) was performed on cultured murine RAW 264.7 macrophages, according to the manufacturer's protocol. Cells were seeded in 96-well plates at the density of 10,000 cells per well, grown at 37° C. and serum-starved for 24 hours. […] For quantification, an iD3 luminometer (Molecular Devices) was used.
# humans = test: Retrospective analysis of 18F-FDG-PET/CT scans of patients treated with magrolimab; format: in vivo, human; conditions: mean±SD, n=9
# Experimental: Study population and design. The 13 participants enrolled in the first-in-human clinical trials of magrolimab at Stanford University were identified for inclusion in this retrospective analysis. These patients had refractory or relapsed B-cell lymphoma and had become refractory to rituximab alone or in combination with chemotherapy prior to enrollment. The protocol was reviewed and approved by the institutional review board at Stanford University (IRB #55497). Participants were treated with magrolimab in combination with background rituximab therapy. […]
# ^18F-FDG-PET/CT scans and analysis. […] Images were anonymized and analyzed using MIM Vista version 6.9.2 (MIM Software Inc., Cleveland, OH). The analyses were performed as previously described, and vascular uptake was quantified in the carotid arteries to avoid confounding by signal present in the mediastinal lymph nodes. Briefly, the carotid artery bifurcations on both sides were identified and arterial FDG uptake was measured starting 2 cm below the carotid artery bifurcation and continuing superiorly to 2 cm into the internal carotid artery. […] The maximum target-to-background ratio (TBR) was calculated (ratio of the maximum SUV of the artery compared to background activity in the ipsilateral internal jugular vein). […] This was calculated as an average maximum TBR derived from four contiguous axial segments. […]
# NFκB1 p50 = NFκB1 p50 nuclear translocation by immunofluorescence and Western blot; format: cell-based, mouse; conditions: smooth muscle cells, 10 μM atorvastatin + 100 μM mevalonate
# Experimental: Mouse smooth muscle cells were seeded in Millicell EZ Slides 1 (Sigma-Aldrich, Catalogue #PEZGS0416 or Catalogue #PEZGS0816). […] Following stimulation/treatment, cells were rinsed with PBS and fixed with 4% phosphate-buffered paraformaldehyde. For CD47 staining (BioXCell, MIAP410, 25 μg/ml), vector mouse-on-mouse fluorescein Immunodetection Kit (Thermo Scientific, Catalogue #NC9801950) was used according to the manufacturer's instructions. For NFκB1 p105/p50 staining, cells were blocked with 5% goat serum (Sigma-Aldrich, Catalogue #G9023) for 30 minutes, then incubated with NFκB1 p105/p50 (Cell Signaling Technology, Catalogue #13586S, D4P4D, 1:200) overnight at 4° C. […] Images were captured using a Leica DMi8 microscope (equipped with a Leica DMC4500 colour camera and a Leica K5 camera for fluorescence imaging).
# Total protein was isolated from mouse smooth muscle cells using a subcellular protein fractionation kit (Thermo Scientific, Catalogue #78840) supplemented with Halt Protease and Phosphatase Inhibitor Cocktail (Thermo Scientific, Catalogue #78442). The protein concentration in each sample was measured using Pierce BCA Protein Assay Kit (Thermo Scientific, Catalogue #23225). […] Membranes were then scanned with an iBright 1500 Imaging System (Thermo Scientific) for quantitative analysis using Image J/FIJI software (Version: 2.0.0/1.52p, NIH).
compound,measurement,setting,value
CC(C)c1c(C(=O)Nc2ccccc2)c(-c2ccccc2)c(-c2ccc(F)cc2)n1CC[C@@H](O)C[C@@H](O)CC(=O)O [atorvastatin],tumor necrosis factor-α induced CD47 promoter activity,CD47 promoter,inhibit
same,CD47 RNA level,CD47,larger reduction
same,CD47 protein level,CD47,larger reduction
same,rate of programmed cell death (apoptosis),RAW 264.7 macrophages,not found
"magrolimab: humanized anti-CD47 antibody, the first macrophage checkpoint inhibitor",18F-FDG uptake measured by maximum SUV,"humans; most diseased segment of the index vessel (carotid) after magrolimab 20 to 45 mg/kg weekly with background rituximab, baseline 2.75±0.58, p=0.01",2.09±0.53
same,18F-FDG uptake measured by maximum TBR,"humans; most diseased segment of the index vessel (carotid) after magrolimab with background rituximab, baseline 1.56±0.22, p=0.006",1.28±0.11
CC(O)(CCOP(=O)(O)O)CC(=O)O (racemic) [DL-mevalonic acid 5-phosphate],effect of atorvastatin on NFκB1 p50 nuclear translocation with the addition of mevalonate,NFκB1 p50,eliminated
